From US20120065198A2, “Detection and Treatment of Schizophrenia” (Tokai University Educational System, priority 2007, published 2012)

Columns and labels:
pentosidine formation [1] = experiment: Inhibitory effect on AGEs (pentosidine) formation in serum of renal failure patients; format: biochemical, human; settings: final concentration 5 mM, 1 week at 37° C.; for Pentosidine Formation Ratio (%): control as 100%; for AGE Formation Inhibition Ratio (%): determined from the pentosidine formation ratio
Procedure: To 450 μl of protein (serum of renal failure patients with an informed consent) was added 50 μl of a solution of each test compound in dimethylsulfoxide (final concentration: 5 mM), and the resulting mixture was incubated for 1 week at 37° C. The quantity of pentosidine, which is one of the AGEs formed, was subsequently measured as follows.
First, in order to release the pentosidine formed in the protein, 50 μl of 10% trichloroacetic acid was added to 50 μl of the reacted sample, and the mixture was centrifuged to precipitate the protein that was then collected. The collected protein was washed with 300 μl of 5% trichloroacetic acid and dried; 100 μl of 6 N hydrochloric acid was subsequently added, and hydrolysis was performed for 16 hours at 110° C. The quantity of pentosidine (nmol/l) formed was measured by HPLC using a fluorescence detector (ODS C18, 4.6×250 mm, 335 nm, 385 nm), according to a gradient method (30 minutes, 1.0 ml/min) using a mobile phase of distilled water containing 0.1% trifluoroacetic acid/80% acetonitrile containing 0.08% trifluoroacetic acid (Miyata, T et al.,: J. Am. Soc., Nephrol., 7, 1198-1206, 1996; Miyata, T., et al., Proc. Natl. Acad. Sci., USA, 93 2353-2358, 1996).
In order to evaluate the inhibitory effect of each test compound on AGE formation, the proportion of the quantity of pentosidine formed was calculated as the ratio (%) of pentosidine formation relative to the quantity of pentosidine formed with a control as 100%. Further, from the calculated value, the ratio of inhibition of pentosidine formation (the ratio (%) of inhibition of AGE formation) was also determined.

pentosidine formation [2] = experiment: Inhibitory effect on pentosidine formation in plasma of hemodialysis patients; format: biochemical, human; settings: final concentrations 0.8, 2.0, and 5.0 mM, 1 week at 37° C., FIG. 13
Procedure: Plasma was collected from hemodialysis patients prior to dialysis with the patients' consent, and the plasma was filtered and sterilized. To the plasma (450 μL) was added solutions of TM-2002 in dimethylsulfoxide (50 μL) (final concentrations: 0.8, 2.0, and 5.0 mM), and the mixtures were incubated for 1 week at 37° C. The levels of the pentosidine formation were measured.
Pentosidine was measured as follows. To each sample (50 μL) after incubation was added an equal volume of 10% trichloroacetic acid, and the mixture was subsequently centrifuged at 5,000 g for 5 minutes. After the supernatant was removed, the pellet was washed with 5% trichloroacetic acid (300 μL). […] The concentration of the released pentosidine was measured by reverse-phase HPLC using a fluorescence detector (RF-10A, Shimadzu Corporation) (Miyata, T. et al.; Proc. Natl. Acad. Sci. USA, Vol. 93, p. 2353-2358, 1996). The effluent was monitored at the excitation/emission wavelength of 335/385 nm. […]
The inhibitory effect was evaluated by comparison with a positive control (pyridoxamine (Sigma)), which was reacted in the same manner as Compound TM-2002. […] The results (the quantities of pentosidine: nmol/ml) are shown in FIG. 13, wherein the “control” hereinbelow means a negative control using only the solvent.

Row | Structure (SMILES) | Pentosidine Formation Ratio (%) (pentosidine formation [1]) | AGE Formation Inhibition Ratio (%) (pentosidine formation [1]) | inhibition of pentosidine formation compared to pyridoxamine (positive control) (pentosidine formation [2])
1 | CCC1C(=O)N(c2ccc(Cl)cc2)N=C1C (stereo not shown) [(18)] | 18.0 | 82.0 | 
2 | CCCC1=NN(c2ccccc2)C(=O)C1CC(=O)c1ccccc1 (stereo not shown) [(20)] | 12.4 | 87.6 | 
3 | O=C1C2CCCC2=NN1c1ccccc1 (stereo not shown) [(10)] | 18.0 | 82.0 | 
4 | CC1=NN(c2ccccc2)C(=O)C1NS(=O)(=O)c1ccc(C)cc1 (stereo not shown) [(11)] | 24.9 | 75.1 | 
5 | NC1=NN(c2ccccc2)C(=O)C1Sc1nnnn1-c1ccccc1 (stereo not shown) [(6)] | 16.8 | 83.2 | 
6 | CC1=NN(c2ccc(N)cc2)C(=O)C1CCO (stereo not shown) [(5)] | 9.33 | 90.67 | 
7 | C/C(=N\O)C1C(=O)N(c2ccccc2)N=C1c1ccccc1 (stereo not shown) [(16)] | 25.8 | 74.2 | 
8 | CC1=NN(c2ccccc2)C(=O)C1C(c1ccccc1)c1c(C)nn(-c2ccccc2)c1O (stereo not shown) [(9)] | 30.8 | 69.2 | 
9 | O=C(NC1=NN(c2ccccc2)C(=O)C1Sc1nnnn1-c1ccccc1)c1ccccc1 (stereo not shown) [(14)] | 22.1 | 77.9 | 
10 | CC1=NN(c2ccccc2)C(=O)C1C1C(=O)N(c2ccccc2)N=C1C (stereo not shown) [(17)] | 35.0 | 65.0 | 
11 | NC1=NN(c2ccccc2)C(=O)C1C(=O)C(=O)Nc1ccccc1 (stereo not shown) [(1)] | 18.1 | 81.9 | 
12 | Cc1ncc2c(c1O)C(c1c(C)nn(-c3ccccc3)c1O)OC2 (stereo not shown) [No. 68, 1-(5-hydroxy-3-methyl-1-phenyl-1H-pyrazol-4-yl)-6-methyl-1,3-dihydro-furo[3,4-c]pyridin-7-ol] |  |  | significantly inhibits the pentosidine formation as compared to pyridoxamine
13 | CC1=NN(c2cccc([N+](=O)[O-])c2)C(=O)C1Sc1nnnn1-c1ccccc1 (stereo not shown) [(13)] | 45.4 | 54.6 | 
14 | CC1=NN(c2ccccc2)C(=O)C1CCC(=O)O (stereo not shown) [(7)] | 27.2 | 72.8 | 
15 | NC1=NN(c2ccccc2)C(=O)C1C(=O)C(=O)Nc1nccs1 (stereo not shown) [(2)] | 26.1 | 73.9 | 
16 | CC(=O)NC1C(=O)N(c2ccccc2)N=C1C (stereo not shown) [(8)] | 23.5 | 76.5 | 
